Where two headings read alike, the source gives them in different places.
Columns and labels:
in vitro [1] = experiment: in vitro; design: species or system HB2, HEK293; settings: human, ccd841 cells
NUDT7 = target: T1, NUDT7 (Homo sapiens, UniProt P0C024); design: Intact protein LC/MS covalent labelling, fragments in pools of five, 200 uM each, 4 °C; settings: 24 h, 4 °C, pool of five; 200 µM; covalent
T1 construct: residues 14-235, E. coli, pNIC28-Bsa4, N-terminal His6 tag removed by TEV, construct 26672 Da
T1 sequence (P0C024 14-235): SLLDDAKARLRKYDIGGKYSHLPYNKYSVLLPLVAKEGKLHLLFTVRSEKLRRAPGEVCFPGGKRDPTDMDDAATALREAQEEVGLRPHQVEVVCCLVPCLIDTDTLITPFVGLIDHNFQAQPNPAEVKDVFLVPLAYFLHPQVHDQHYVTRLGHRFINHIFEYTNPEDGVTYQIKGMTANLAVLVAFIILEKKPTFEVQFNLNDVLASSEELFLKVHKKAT

BSA = target: T2, BSA (Bos taurus, UniProt P02769); design: Intact protein LC/MS covalent labelling, fragments in pools of five, 200 uM each, 4 °C; settings: 24 h, 4 °C, pool of five; 200 µM; covalent
T2 construct: gene ALB
T2 sequence (P02769 whole entry, the tested form may be a part): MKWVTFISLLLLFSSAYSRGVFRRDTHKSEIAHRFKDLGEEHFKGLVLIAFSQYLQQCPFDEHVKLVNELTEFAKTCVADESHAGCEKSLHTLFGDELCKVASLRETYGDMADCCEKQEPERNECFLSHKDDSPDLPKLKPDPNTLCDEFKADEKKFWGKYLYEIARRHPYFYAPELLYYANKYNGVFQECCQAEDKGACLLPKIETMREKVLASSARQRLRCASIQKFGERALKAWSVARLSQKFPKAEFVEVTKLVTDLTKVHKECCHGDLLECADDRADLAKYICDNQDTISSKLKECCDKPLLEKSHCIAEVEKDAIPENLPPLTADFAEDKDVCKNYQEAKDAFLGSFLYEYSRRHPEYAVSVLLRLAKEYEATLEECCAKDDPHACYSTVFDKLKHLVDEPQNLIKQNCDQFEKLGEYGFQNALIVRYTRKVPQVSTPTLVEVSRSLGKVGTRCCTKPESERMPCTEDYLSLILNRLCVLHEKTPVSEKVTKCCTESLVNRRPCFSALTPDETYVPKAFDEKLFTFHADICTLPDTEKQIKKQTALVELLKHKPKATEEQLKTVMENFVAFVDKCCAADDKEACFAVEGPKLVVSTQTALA

OTUB2 (OTUB2A) = target: T3, OTUB2 (OTUB2A) (Homo sapiens, UniProt Q96DC9); design: Intact protein LC/MS covalent labelling, fragments in pools of five, 200 uM each, 4 °C; settings: 24 h, 4 °C, pool of five; 200 µM; covalent
T3 construct: full length residues 1-234, E. coli BL21(DE3)-R3, His tag removed by TEV, construct 27312 Da
T3 sequence (Q96DC9 1-234): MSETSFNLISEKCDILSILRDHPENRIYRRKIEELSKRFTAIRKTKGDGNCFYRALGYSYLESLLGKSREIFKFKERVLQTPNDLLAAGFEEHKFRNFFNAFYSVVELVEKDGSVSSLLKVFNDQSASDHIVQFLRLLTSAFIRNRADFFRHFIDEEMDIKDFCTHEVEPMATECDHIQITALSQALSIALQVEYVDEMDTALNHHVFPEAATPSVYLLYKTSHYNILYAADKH

PCAF = target: T4, PCAF (Homo sapiens, UniProt Q92831); design: Intact protein LC/MS covalent labelling, fragments in pools of five, 200 uM each, 4 °C; settings: 24 h, 4 °C, pool of five; 200 µM; covalent
T4 construct: gene KAT2B
T4 sequence (Q92831 whole entry, the tested form may be a part): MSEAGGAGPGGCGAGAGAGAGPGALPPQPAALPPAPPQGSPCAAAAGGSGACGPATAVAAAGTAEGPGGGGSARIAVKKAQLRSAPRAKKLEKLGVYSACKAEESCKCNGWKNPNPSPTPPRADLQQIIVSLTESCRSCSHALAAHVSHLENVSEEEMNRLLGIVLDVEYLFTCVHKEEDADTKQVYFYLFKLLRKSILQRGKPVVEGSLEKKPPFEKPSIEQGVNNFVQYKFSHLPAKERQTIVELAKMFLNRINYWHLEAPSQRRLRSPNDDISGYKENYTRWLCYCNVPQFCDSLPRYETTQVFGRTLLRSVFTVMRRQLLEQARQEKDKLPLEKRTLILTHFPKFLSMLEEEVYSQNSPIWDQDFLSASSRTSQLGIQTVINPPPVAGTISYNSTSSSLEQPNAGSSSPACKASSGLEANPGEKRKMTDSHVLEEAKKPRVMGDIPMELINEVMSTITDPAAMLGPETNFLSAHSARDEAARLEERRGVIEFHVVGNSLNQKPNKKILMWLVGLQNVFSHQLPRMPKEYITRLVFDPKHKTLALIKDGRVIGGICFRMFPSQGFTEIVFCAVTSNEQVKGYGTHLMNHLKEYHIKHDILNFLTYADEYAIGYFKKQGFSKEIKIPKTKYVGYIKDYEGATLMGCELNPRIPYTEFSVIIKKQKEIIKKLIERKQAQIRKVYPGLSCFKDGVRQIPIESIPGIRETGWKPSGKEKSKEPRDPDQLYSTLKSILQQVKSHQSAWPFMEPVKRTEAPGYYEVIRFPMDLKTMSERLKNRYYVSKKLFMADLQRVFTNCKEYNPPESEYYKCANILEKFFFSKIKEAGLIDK

in vitro [2] = experiment: in vitro; design: species or system HB2, CCD841; settings: human, hek293 cells
in vitro [3] = experiment: in vitro; design: species or system CCD841, HEK293; settings: human, hb2 cells, read-out: HB-2 Cells Viability (%)

Row | Structure (SMILES) | viability at 48 h, 10 µM (in vitro [1]) [%] | NUDT7 (NUDT7) | BSA (BSA) | OTUB2 (OTUB2 (OTUB2A)) | PCAF (PCAF) | viability at 48 h, 10 µM (in vitro [2]) [%] | viability at 48 h, 10 µM (in vitro [3]) [%]
1 | O=C(CCl)Nc1ccccc1[N+](=O)[O-] [PCM-0102232] | 81.8 | 0.24 | 0 | 0.2 | 0 | 73.9 | 75.4
2 | O=C(CCl)NNC(=O)CC1CCS(=O)(=O)C1 (stereo not drawn) [PCM-0102998] | 100 | 0 | 0 | 0.69 | 0 | 112 | 101
3 | C=CC(=O)N1CCCC1c1cc(C)on1 (stereo not drawn) [PCM-0102683] | 101 | 0 | 0 | 0.12 | 0 | 121 | 103
4 | COC(=O)c1cccc(NC(=O)CCl)c1O [PCM-0102851] | 116 | 0.1 | 0 | 0.23 | 0 | 108 | 106
5 | CC(=O)Nc1cccc(NC(=O)CCl)c1 [PCM-0102172] | 53.4 | 0 | 0 | 0 | 0 | 4.7 | 35.9
6 | Cc1cc([N+](=O)[O-])ccc1NC(=O)CCl [PCM-0102134] | 60.9 | 0.1 | 0 | 0.11 | 0 | 18.1 | 44.3
7 | CCc1ccccc1NC(=O)CCl [PCM-0102369] | 76.1 | 0 | 0 | 0 | 0 | 56.7 | 78.3
8 | O=C(CCl)NNC(=O)c1cc2c(s1)CCCC2 [PCM-0102142] | 62.6 | 0.09 | 0 | 1 | 0 | 52.6 | 49
9 | CS(=O)(=O)c1ccccc1NC(=O)CCl [PCM-0102141] | 98.2 | 0 | 0 | 0 | 0 | 96.8 | 96.8
10 | C=CC(=O)N1CCOC2(CCc3ccccc32)C1 (stereo not drawn) [PCM-0102439] | 105 | 0 | 0 | 0 | 0 | 92.3 | 99.3
11 | CC(C)N(C(=O)CCl)C1CCCC1 [PCM-0102948] | 102 | 0.13 | 0 | 0 | 0 | 84.3 | 88.4
12 | Cc1ccc([N+](=O)[O-])cc1NC(=O)CCl [PCM-0102098] | 2 | 0.12 | 0 | 0.33 | 0 | 1.2 | 1.1
13 | O=C(CCl)Nc1ccccc1Br [PCM-0102312] | 89.7 | 0.15 | 0 | 0 | 0 | 92.9 | 90.8
14 | CCC1c2ccsc2CCN1C(=O)CCl (stereo not drawn) [PCM-0103051] | 14 | 0.3 | 0 | 0 | 0 | 6 | 13.5
15 | COc1ccc2c(c1)CCCN2C(=O)CCl [PCM-0102325] | 40.2 | 0.12 | 0 | 0 | 0 | 1.8 | 7.5
16 | O=C(CCl)NC1CCN(C(=O)c2ccco2)CC1 [PCM-0102619] | 101 | 0 | 0 | 0.1 | 0 | 84.6 | 105
17 | O=C(CCl)NNC(=O)c1ccccc1 [PCM-0102240] | 85.6 | 0 | 0 | 0.2 | 0 | 92.4 | 98.1

Row | Structure (SMILES) | viability at 48 h, 10 µM (in vitro [1]) [%] | NUDT7 (NUDT7) | BSA (BSA) | OTUB2 (OTUB2 (OTUB2A)) | PCAF (PCAF) | viability at 48 h, 10 µM (in vitro [2]) [%] | viability at 48 h, 10 µM (in vitro [3]) [%]
18 | C=CC(=O)NCC1(O)CCS(=O)(=O)CC1 [PCM-0102691] | 104 | 0 | 0 | 0.2 | 0 | 103 | 104
19 | O=C(CCl)Nc1cc2c(cc1Cl)OCO2 [PCM-0102209] | 70.7 | 0.13 | 0 | 0.27 | 0 | 47.1 | 58.1
20 | C=CC(=O)NCC1=CCCOC1 [PCM-0102448] | 104 | 0.05 | 0 | 0 | 0 | 79.4 | 102
21 | Cl.O=C(CCl)N1CCN(c2ccc(O)cc2)CC1 [PCM-0102357] | 76.7 | 0 | 0 | 0 | 0 | 12.7 | 31
22 | COC(=O)C1(NC(=O)CCl)CCCCC1 [PCM-0102734] | 95.1 | 0 | 0 | 0 | 0 | 112 | 98.3
23 | O=C(CCl)NCc1cccs1 [PCM-0102280] | 81.3 | 0 | 0 | 0.22 | 0 | 82 | 94.3
24 | Cc1nc(-c2ccc(C)c(NC(=O)CCl)c2)n[nH]1 [PCM-0103052] | 43.4 | 0.12 | 0 | 0.09 | 0 | 39.1 | 57
25 | C=CC(=O)NCc1cnn2ccccc12 [PCM-0102561] | 124 | 0 | 0 | 0 | 0 | 95.2 | 108
26 | CCC1CN(C(=O)CCl)CCO1 (stereo not drawn) [PCM-0102436] | 79.3 | 0 | 0 | 0 | 0 | 71.4 | 85.5
27 | Cl.O=C(CCl)N1CCN(CC(=O)N2CCCC2)CC1 [PCM-0102346] | 80.8 | 0 | 0 | 0 | 0 | 99 | 98.1
28 | Cc1ccc(S(=O)(=O)N2CCN(C(=O)CCl)CC2)c(C)c1 [PCM-0102628] | 82.6 | 0 | 0 | 0 | 0 | 82.4 | 35.6
29 | CC1CCCCC1NC(=O)NC(=O)CCl (stereo not drawn) [PCM-0102292] | 69 | 0 | 0 | 0.24 | 0 | 48.6 | 52.8
30 | COc1cccc(NC(=O)CCl)c1 [PCM-0102410] | 63.5 | 0 | 0.21 | 0 | 0 | 7.5 | 34.1
31 | O=C(CCl)NCc1ccc(F)cc1C(F)(F)F [PCM-0102733] | 79.1 | 0.06 | 0 | 0.33 | 0 | 68.8 | 86.6
32 | C=CC(=O)N1CC2CC3CC(C2)CC1C3 [PCM-0102443] | 115 | 0 | 0 | 0.24 | 0 | 97.7 | 99.9
33 | CNC(=O)C1CCCN1C(=O)CCl (stereo not drawn) [PCM-0102518] | 93.3 | 0 | 0 | 0 | 0 | 67.8 | 101
